Data taken from patent US20050130252A1, “Stabilized susceptibility tests of aerobic pathogens” (Wyeth Holdings Corporation, priority 2003, published 2005).
Values after ≈ are worked out from the molar mass of the structure shown. Where two headings read alike, the source gives them in different places.

Assays:
Experiment in all cases: Broth microdilution MIC
[1] = system: E. faecalis ATCC 29212; assay type: cell-based, Enterococcus faecalis; details: for MIC: Enterococcus faecalis, ATCC29212, E. faecalis ATCC 29212, read-out: Minimal Inhibitory Concentration; for Minimal Inhibitory Concentration: E. faecalis ATCC 29212
Procedure: (§1) The process for preparing susceptibility test medium are the following steps: • a. Preparing Mueller Hinton Broth II medium by adding 22 grams powdered media to 1.0 liter distilled water; • b. Autoclaving (121° C., 15 psi, 15 minutes) and cooling the medium; • c. Adding Oxyrase® up to about 10% final volume and keeping at 35-37° C. in an incubator for 30 minutes; • d. Adding about 50 μL to each well of a 96 well microtiter plate; • e. Weighing drug and adding broth to drug to bring up to about (standard 128 μg/ml); • f. Adding 50 μL of the drug to the first column of the titer plate; • g. Diluting by two-fold serial diluting across or down the plate. • h. Preparing a Prompt™ inoculum at 10^8 CFU/ml; • i. Diluting inoculum 1:100 in the broth at […] in 9.9 ml (1:100) is 10^6 colony forming units (CFU) forming the adjusted inoculum; • j. Adding 50 μL of the adjusted inoculum to the wells of the microtiter plate; • k. Incubating the plates at 35-37° C. for 18-22 hours; and • l. Reading, with the unaided eye, the MIC.
(§2) The in vitro activities of tigecycline and control antibiotics were determined by the broth microdilution method as recommended by the NCCLS. (National Committee for Clinical Laboratory Standards, 2003. Methods for Dilution Antimicrobial Susceptibility Tests for Bacteria That Grow Aerobically; Approved Standards: M7-A6, Sixth ed, vol. 23., National Committee for Clinical Laboratory Standards Wayne, Pa.) was used for the standard procedures. MBH with 5% lysed horse blood was used for testing S. pneumoniae and Haemophilus Test Medium was used for testing H. influenzae. Oxyrase® (Oxyrase Inc, Mansfield, Ohio) was used according to the manufacturer's instructions by adding 1 ml of Oxyrase® to 50 ml of media. Media age studies were performed by preparing MHB in multiple flasks, then storing the media under various conditions. MICs were usually performed in duplicate on each day of testing. Storage under anaerobic conditions was conducted in an anaerobic chamber (MACS MG 1000, Don Whitley Scientific LTD). The pH of the media was determined by pH meter (Corning 430). A comparison of the in vitro activity of tigecycline by agar and broth dilution methodolgies with and without Oxyrase® against clinical isolates is shown in Table 1.

[2] = system: E. coli ATCC 25922; assay type: cell-based, Escherichia coli; details: for MIC: Escherichia coli, ATCC25922, E. coli ATCC 25922, read-out: Minimal Inhibitory Concentration; for Minimal Inhibitory Concentration: E. coli ATCC 25922
Procedure: as §1, §2

[3] = system: S. aureus ATCC 29213; assay type: cell-based, Staphylococcus aureus; details: Staphylococcus aureus, ATCC29213, S. aureus ATCC 29213, read-out: Minimal Inhibitory Concentration
Procedure: as §1, §2

[4] = system: S. aureus ATCC 25923; assay type: cell-based, Staphylococcus aureus; details: for MIC: Staphylococcus aureus, ATCC25923, S. aureus ATCC 25923, read-out: Minimal Inhibitory Concentration; for Minimal Inhibitory Concentration: S. aureus ATCC 25923
Procedure: as §1, §2

[5] = system: P. aeruginosa ATCC 27853; assay type: cell-based, Pseudomonas aeruginosa; details: for Minimal Inhibitory Concentration: P. aeruginosa ATCC 27853; for MIC: Pseudomonas aeruginosa, ATCC27853, P. aeruginosa ATCC 27853, read-out: Minimal Inhibitory Concentration
Procedure: as §1, §2

[6] = Mueller Hinton Broth II (Fresh)
[7] = Mueller Hinton Broth II (MHB II)

| Compound | MIC ([1]; MHB II + 0.05% Catalase) | MIC ([1]; MHB II + 0.05% L-ascorbic Acid) | MIC ([1]; MHB II + 0.05% L-cysteine) | MIC ([1]; MHB II + 0.05% Sodium Pyruvate) | MIC ([1]; MHB II + 0.05% Thioglycolate) | MIC [1, 6] | MIC ([2]; MHB II + 0.05% Catalase) | MIC ([2]; MHB II + 0.05% L-ascorbic Acid) | MIC ([2]; MHB II + 0.05% L-cysteine) | MIC ([2]; MHB II + 0.05% Sodium Pyruvate) | MIC ([2]; MHB II + 0.05% Thioglycolate) | MIC ([2]; MHB II + 2% Oxyrase) | MIC [2, 6] | MIC [2, 7] | MIC ([3]; MHB II + 0.05% Catalase) | MIC ([3]; MHB II + 0.05% L-ascorbic Acid) | MIC ([3]; MHB II + 0.05% L-cysteine) | MIC ([3]; MHB II + 0.05% Thioglycolate) | MIC ([3]; MHB II + 2% Oxyrase) | MIC [3, 6] | further results |
| --- | --- | --- | --- | --- | --- | --- | --- | --- | --- | --- | --- | --- | --- | --- | --- | --- | --- | --- | --- | --- | --- |
| CN(C)[C@@H]1C(O)=C(C(N)=O)C(=O)[C@@]2(O)C(O)=C3C(=O)c4c(O)cccc4[C@@](C)(O)[C@H]3C[C@@H]12 [Tetracycline] | 16 µg/mL | > 4 µg/mL | > 4 µg/mL | 16 µg/mL | > 16 µg/mL | > 4 µg/mL | 4 µg/mL | > 4 µg/mL | 4 µg/mL | 2 µg/mL | 4 µg/mL | 1 µg/mL | 1 to 2 µg/mL (≈ 2.25 to 4.5 µM) | 1 to 2 µg/mL (≈ 2.25 to 4.5 µM) | 1 µg/mL | 2 µg/mL | 1 µg/mL | 1 µg/mL | 0.5 to 1 µg/mL | 1 to 2 µg/mL (≈ 2.25 to 4.5 µM) | MIC [3, 7]: 0.5 to 1 µg/mL (≈ 1.13 to 2.25 µM); MIC ([4]; MHB II + 0.05% Sodium Pyruvate): 1 µg/mL |
| CN(C)CC(=O)Nc1ccc2c(c1O)C(=O)C1=C(O)C3(O)C(=O)C(C(N)=O)=C(O)C(N(C)C)C3CC1C2 (stereo not shown) [DMG-DMDOT, N,N-dimethylglycylamido 9 amino-6-demethyl-6-deoxytetracycline] |  |  |  |  |  |  |  |  |  |  |  |  |  |  |  |  |  |  |  |  | Minimal Inhibitory Concentration ([1]; 2% Oxyrase): 0.06 µg/mL; Minimal Inhibitory Concentration ([1]; No Oxyrase): 0.06 µg/mL; Minimal Inhibitory Concentration ([5]; 2% Oxyrase): 8 µg/mL; Minimal Inhibitory Concentration ([5]; No Oxyrase): 16 µg/mL; Minimal Inhibitory Concentration ([2]; 2% Oxyrase): 0.12 µg/mL; Minimal Inhibitory Concentration ([2]; No Oxyrase): 0.12 µg/mL; Minimal Inhibitory Concentration ([4]; 2% Oxyrase): 0.12 µg/mL; Minimal Inhibitory Concentration ([4]; No Oxyrase): 0.25 µg/mL |
| CN(C)CC(=O)Nc1cc(N(C)C)c2c(c1O)C(=O)C1=C(O)C3(O)C(=O)C(C(N)=O)=C(O)C(N(C)C)C3CC1C2 (stereo not shown) [DMG-MINO, N,N-dimethylglycylamido 9-aminominocycline] |  |  |  |  |  |  |  |  |  |  |  |  |  |  |  |  |  |  |  |  | Minimal Inhibitory Concentration ([1]; 2% Oxyrase): 0.03 µg/mL; Minimal Inhibitory Concentration ([1]; No Oxyrase): 0.25 µg/mL; Minimal Inhibitory Concentration ([5]; 2% Oxyrase): 16 µg/mL; Minimal Inhibitory Concentration ([5]; No Oxyrase): 16 µg/mL; Minimal Inhibitory Concentration ([2]; 2% Oxyrase): 0.06 µg/mL; Minimal Inhibitory Concentration ([2]; No Oxyrase): 0.25 µg/mL; Minimal Inhibitory Concentration ([4]; 2% Oxyrase): 0.12 µg/mL; Minimal Inhibitory Concentration ([4]; No Oxyrase): 0.50 µg/mL |
| CN(C)c1ccc(O)c2c1C[C@H]1C[C@H]3[C@H](N(C)C)C(O)=C(C(N)=O)C(=O)[C@@]3(O)C(O)=C1C2=O [Minocycline] | 4 µg/mL | 4 µg/mL | 4 µg/mL | 2 µg/mL | 8 µg/mL | 4 µg/mL (≈ 8.74 µM) | 1 µg/mL | 4 µg/mL | 2 µg/mL | 0.5 µg/mL | 1 µg/mL | 0.5 µg/mL | 0.5 to 1 µg/mL (≈ 1.09 to 2.19 µM) | 0.5 to 1 µg/mL (≈ 1.09 to 2.19 µM) | 0.5 µg/mL | 1 µg/mL | 0.25 µg/mL | 0.25 µg/mL | 0.12 to 0.25 µg/mL | 0.12 to 0.5 µg/mL (≈ 0.262 to 1.09 µM) | MIC ([1]; 2% Oxyrase): 2 µg/mL (≈ 4.37 µM); MIC ([1]; MHB II + 2% Oxyrase): 2 to 4 µg/mL; MIC [1, 7]: 4 to 8 µg/mL (≈ 8.74 to 17.5 µM); MIC ([1]; No Oxyrase): 4 µg/mL (≈ 8.74 µM); MIC ([5]; 2% Oxyrase): 16 µg/mL (≈ 35 µM); MIC ([5]; No Oxyrase): > 16 µg/mL; MIC ([2]; 2% Oxyrase): 0.5 µg/mL (≈ 1.09 µM); MIC ([2]; No Oxyrase): 1 µg/mL (≈ 2.19 µM); MIC [3, 7]: 0.25 to 0.5 µg/mL (≈ 0.546 to 1.09 µM); MIC ([4]; 2% Oxyrase): 0.12 µg/mL (≈ 0.262 µM); MIC ([4]; MHB II + 0.05% Sodium Pyruvate): 0.25 µg/mL; MIC ([4]; No Oxyrase): 0.25 µg/mL (≈ 0.546 µM) |
